Measurements as given in patent US8929978B2, “Phototherapy devices and methods comprising optionally substituted terphenyl and quaterphenyl compounds” (Nitto Denko Corporation, priority 2011, dated 2015).

Tests used:
[1] = system: person suffering from pathological myopia; assay: Verteporphin activated by red OLED light in pathological myopia; assay type: in vivo; conditions: about 6 mg/m^2 i.v.; retina illuminated about 15 minutes after start of infusion with red OLED
[2] = system: person suffering from presumed ocular histoplasmosis; conditions: in vivo, iv
[3] = system: person suffering from age-related macular degeneration; assay: Verteporphin activated by red OLED light in age-related macular degeneration; assay type: in vivo; conditions: about 6 mg/m^2 i.v.; retina illuminated about 15 minutes after start of infusion with red OLED
[4] = system: person suffering from actinic keratoses; assay: Photodynamic treatment of actinic keratoses lesions with red OLED light; conditions: 20% topical solution; illuminated about 14-18 hours after application with red OLED of Example 2
[5] = system: CHO-K1 (Chinese Hamster Ovarian Cancer, ATCC, CRL-2243) cell line; assay: Ex-vivo efficacy study with OLED Device A and ALA (MTT cell viability, microscopy)

In the case of `C=Cc1c(C)c2cc3nc(cc4[nH]c(cc5nc(cc1[nH]2)C(C)=C5CCC(=O)O)c(CCC(=O)OC)c4C)[C@@]1(C)C3=CC=C(C(=O)OC)[C@H]1C(=O)OC` [Verteporphin], the “patient's vision after treatment” value [1] is reported as “stabilized”, the “patient's vision after treatment” value [2] is reported as “stabilized” and the “patient's vision after treatment” value [3] is reported as “stabilized”.
With `Cl.NCC(=O)CCC(=O)O` [5-Aminolevulinic acid HCl] the “number or severity of the lesions after treatment” value [4] was “reduced”.
`NCC(=O)CCC(=O)O` [ALA, 5-aminolevulinic acid] was tested, and the “cell necrosis, 20 mW/cm^2 versus 10 mW/cm^2 output power” value ([5]; ALA 1 mM, irradiation time 25 min at 20 mW/cm^2 and 50 min at 10 mW/cm^2 (FIG. 17)) was “somewhat faster with 20 mW/cm^2 than 10 mW/cm^2”, the “generation of PpIX (protoporphyrin IX) from ALA in cells” value ([5]; ALA 0.5, 1, 2 mM, about 16 hrs at 37° C., fluorescence emission at 635 nm) was “confirmed” and the cytotoxicity at 1000 µM ([5]; Cricetulus griseus, CHO-K1, light or radiation study, read-out: cells destroyed compared with the reference (MTT cell viability, light dosimetry)) was about 90%. The “cell morphology under optical microscope after light irradiation” value ([5]; after about 25 J/cm^2 red light (630 nm) irradiation, leafy type cells transform to droplet type (FIG. 14)) was “significant and irreversible cell death”.
